Measured values reported in publication PMC7756341, “Liposomal FRET Assay Identifies Potent Drug‐Like Inhibitors of the Ceramide Transport Protein (CERT)” (Chemistry (Weinheim an Der Bergstrasse, Germany), 2020).
Values joined by “and” are separate entries in the source; they are usually repeats but may differ in a detail not shown here. Identical values can stand only once. Like-named read-outs stand apart in the source and are kept apart here.

Biological target: T1, START domain of human CERT (Homo sapiens, UniProt Q9Y5P4)
T1 construct: The START domain of hCERT was expressed has a His6-SUMO fusion protein [2]; His6-SUMO (N, cleaved yes); made in house; host or cells: E. coli BL21(DE3), pQE-based plasmid
T1 sequence (Q9Y5P4 347-598 isoform Q9Y5P4-2 limits assumed): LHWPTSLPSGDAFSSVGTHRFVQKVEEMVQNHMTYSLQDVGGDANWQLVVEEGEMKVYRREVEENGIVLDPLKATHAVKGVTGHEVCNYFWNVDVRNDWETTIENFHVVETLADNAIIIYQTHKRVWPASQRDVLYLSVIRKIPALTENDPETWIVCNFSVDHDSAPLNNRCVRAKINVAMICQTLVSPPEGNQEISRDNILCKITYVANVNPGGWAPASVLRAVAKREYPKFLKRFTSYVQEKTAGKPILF
Test: Microscale thermophoresis (MST) binding assay
Details: for Kd: fluorescently labeled START domain 50 nM
Protocol: 1.2 Expression and purification of the START domain of human CERT
The START domain of hCERT was expressed has a His6-SUMO fusion protein [2]. The pQE-based plasmid harboring the genetic information of His6-SUMO-START was transformed into E. coli BL21(DE3) by following the standard heat shock method. Colonies were grown on carbenicillin ([…]) and 1% glucose supplemented Luria–Bertani (LB) agar plates. A single colony was used to inoculate 20 ml of pre-culture 1 % of which was then used to inoculate 500 ml of LB medium ([…] carbenicillin, 10 mM glucose, 37 °C, 160 rpm). Upon reaching OD600 = 0.8, the culture was induced with 500 μM IPTG (isopropyl-β-d-thiogalactoside) and cells were incubated for 16 h with continuous shaking at 160 rpm. The cells were harvested by centrifugation […]
For purification of the protein, the cell pellet was re-suspended in lysis buffer (25 mM Tris/HCl, pH 7.4, 270 mM Sucrose, 1% Triton X-100, 2.5 mM dithiothreitol (DTT), Protease/Phosphatase inhibitor) on ice. Cells were disrupted using an EmulsiFlex-C3 instrument (Avestin Inc.; CANADA). The lysate was cleared by centrifugation, and the supernatant was loaded onto a Ni– NTA column (Qiagen). The protein was washed with loading buffer pH 7.4 (50 mM Na2HPO4, 50 mM NaH2PO4, 150 mM NaCl, 2,5 mM DTT) containing 20 mM imidazole and eluted with elution […]
mM imidazole. Fractions containing the protein of interest according to SDS-PAGE were pooled and digested with Ubiquitin-like-protein specific protease 1 (ULP1). The by-products (His6-SUMO and ULP1) were removed in a second IMAC step, and the target protein was subjected to a final purification by gel filtration on a superdex 200 16/600 prep grade column equilibrated with loading buffer pH 7.4 (50 mM Na2HPO4, 50 mM NaH2PO4, 150 mM NaCl, 2.5 mM DTT). The monomeric form of the START domain of hCERT was collected. The final concentration of the protein was determined via UV-Visible spectrophotometry (Varian Cary 50) at 280 nm using a calculated extinction coefficient of 50420 (M-1 cm-1).
4. Microscale Thermophoresis (MST) assays
4.1 Labeling of the START domain with a fluorophore dye
In order to perform MST assays, the START domain was coupled with a commercially available fluorophore dye (NT647 (NanoTemper Technologies, Munich, Germany)) following standard procedures provided in the manufacturer's protocol. Briefly, 10 µM of the START domain was labeled with 30 µM of the fluorophore in NHS-LB buffer kept in the dark for 30min. Any excess of the dye was removed via size exclusion chromatography on a Sephadex G25 column (GE Healthcare). The concentration of the labeled protein was determined by UV-VIS spectrophotometry at 280 nm (Varian Cary 50).
4.2 Preparation of the dilution series and MST assay
Dilution series of small-molecule ligands were prepared from stock solutions in DMSO. In case of 6B11 and 17C9, ligands were then diluted into MST buffer (50 mM Na-phosphate, 150 mM NaCl, 2.5 mM DTT, 0.05% Tween-20) to a concentration 2-fold higher than the maximum concentration used in the assay. The concentration of DMSO was kept constant in all dilutions. 16 dilutions of the ligands were prepared in micro reaction tubes by successive 1:1 dilutions with […]
solubility problems. To this end, first, a dilution series in pure DMSO was generated. The individual dilutions were then further diluted 20-fold with MST buffer to a ligand concentration 2-fold higher than its final concentration. As a final step, 10 μL of the fluorescently labeled START domain was added to all reaction tubes containing 10 μL of ligand solution. The final concentration of START domain was 50 nM. After mixing, 2-3 μL of the reaction mixture were filled into standard capillaries (Nanotemper Technologies).
MST measurements were performed with a Monolith NT.115 instrument (Nanotemper Technologies). All ligands were measured as triplicates. 40% MST excitation power was set and, depending on the labeled protein concentration used in the assay, between 5% to 20% of LED […]

Kd (read-out: KD)	Structure (SMILES)	other results
–	CC1=NN(c2ccc(C)c(C)c2)C(=O)/C1=N\Nc1cccc(-c2cccc(C(=O)O)c2)c1O [17C9, Eltrombopag]	binding confirmed by MST (labeled START domain): confirmed binding for all compounds except 17C9
–	Cc1cc(C2=NOC(c3cc(Cl)cc(Cl)c3)(C(F)(F)F)C2)ccc1C(=O)NCC(=O)NCC(F)(F)F (stereo not drawn) [20D5, Fluralaner]	Kd (KD): ~150 µM and 153 µM
~5 µM and 6.77 µM	O=C(NC1CCN(CCCCC2(C(=O)NCC(F)(F)F)c3ccccc3-c3ccccc32)CC1)c1ccccc1-c1ccc(C(F)(F)F)cc1 [8E8, lomitapide]	–
~5 µM and 2.32 µM	CCCC(=O)OCOC(=O)C1=C(C)NC(C)=C(C(=O)OC)C1c1cccc(Cl)c1Cl (stereo not drawn) [6B11, Clevidipine butyrate]	–
0.0415 µM	CCCCCCCCCCCC(=O)NC(CO)CC(O)c1ccccc1 (stereo not drawn) [HPA-12, N-(3Hydroxy-1-hydroxymethyl-3-phenylpropyl)-dodecamide]	Kd (listed as HPA‐12, read-out: KD): ~0.04 µM
